# Experimental data as given in US11130793B2, “GLP-1/GLP-2 dual agonists” (Zealand Pharma A/S, priority 2016, dated 2021).
# Like-named read-outs stand apart in the source and are kept apart here. Square brackets hold non-standard residues; d marks the D form. Peptide text beside a SMILES is read from it. Aib = CC(C)(N)C(=O)O
# Assays:
# [1] = molecular target: T1, human GLP-1 receptor (Homo sapiens, UniProt P43220); assay: GLP-1 receptor potency assay (cAMP AlphaScreen, HEK293 cells stably expressing GLP-1R); type: cell-based
# T1 construct: expressed in transfected cells
# T1 sequence (P43220 24-463): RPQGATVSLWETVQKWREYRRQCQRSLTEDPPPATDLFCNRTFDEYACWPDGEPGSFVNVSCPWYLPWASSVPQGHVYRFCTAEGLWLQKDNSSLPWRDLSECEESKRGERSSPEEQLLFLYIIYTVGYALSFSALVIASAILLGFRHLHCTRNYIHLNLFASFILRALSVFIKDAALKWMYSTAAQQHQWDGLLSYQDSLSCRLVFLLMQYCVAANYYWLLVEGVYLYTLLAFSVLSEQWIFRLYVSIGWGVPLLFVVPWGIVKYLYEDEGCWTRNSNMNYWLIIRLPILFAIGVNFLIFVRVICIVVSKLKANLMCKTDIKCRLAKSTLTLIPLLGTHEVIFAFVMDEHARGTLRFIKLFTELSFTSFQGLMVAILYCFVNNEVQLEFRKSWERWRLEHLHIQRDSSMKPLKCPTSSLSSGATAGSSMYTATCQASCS
# Method in brief: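 A HEK293 clone stably expressing cloned human GLP-1R (G418-selected) was stimulated with compound. Intracellular cAMP was measured by AlphaScreen. Responses were normalized to positive and vehicle controls, and EC50 and maximal response were fitted by 4-parameter logistic regression.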
# [2] = molecular target: T2, human GLP-2 receptor (Homo sapiens, UniProt O95838, D470N); assay: GLP-2 receptor potency assay (cAMP AlphaScreen, HEK293 cells stably expressing GLP-2R); type: cell-based; conditions: cAMP response, HEK293 cells expressing human GLP-2R
# T2 sequence (O95838 1-553 D470N): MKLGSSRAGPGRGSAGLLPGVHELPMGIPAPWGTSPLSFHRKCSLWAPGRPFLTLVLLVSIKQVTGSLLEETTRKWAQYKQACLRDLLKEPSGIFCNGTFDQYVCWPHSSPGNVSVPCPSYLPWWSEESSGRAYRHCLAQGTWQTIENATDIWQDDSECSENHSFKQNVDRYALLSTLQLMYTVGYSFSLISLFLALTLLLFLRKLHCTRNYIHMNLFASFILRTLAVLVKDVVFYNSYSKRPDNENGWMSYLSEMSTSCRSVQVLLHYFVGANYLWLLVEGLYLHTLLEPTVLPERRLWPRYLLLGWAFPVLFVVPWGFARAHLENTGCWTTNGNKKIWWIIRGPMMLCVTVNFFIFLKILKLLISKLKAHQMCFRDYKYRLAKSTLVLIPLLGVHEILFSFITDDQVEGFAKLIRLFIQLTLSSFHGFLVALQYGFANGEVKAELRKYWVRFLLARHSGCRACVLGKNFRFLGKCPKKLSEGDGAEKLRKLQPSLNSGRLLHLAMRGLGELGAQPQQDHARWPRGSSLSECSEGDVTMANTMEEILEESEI
# Method in brief: (§1)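 HEK293 cells stably expressing human GLP-2R (G418-selected clone); intracellular cAMP measured by AlphaScreen. Responses normalized to positive and vehicle controls; EC50 and maximal response from 4-parameter logistic fit.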
# [3] = Solubility assessment by turbidity absorbance at 325 nm; type: physicochemical; conditions: 1 mg/ml peptide
# Protocol: A stock solution of the test peptide (2 mg/ml; determined from the weighed amount of peptide) in demineralized water adjusted to pH 2.5 with HCl was prepared, and aliquots were diluted 1:1 in 100 mM acetate buffer (pH 4.0 and pH 5.0), 100 mM histidine buffer (pH 6.0 and pH 7.0) and 100 mM phosphate buffer (pH 6.0, pH 7.0 and pH7.5), respectively, and loaded in a standard flat-bottom, non-sterile 96-well UV Microplate. The absorbance of samples (single samples, n=1) at 280 and 325 nm was measured in an absorbance-based plate reader, which was preheated to ambient temperature (typically 25° C.).
# [4] = system: Normal chow-fed C57BL/6J male mice; assay: Effect on fasting glucose and intestinal weight in normal mice; type: in vivo; conditions: for Small intestinal wet weight: 250 nmol/kg s.c. once daily for 4 days, sacrificed 24 hours after final dosing; for Fasting blood glucose: day 0, fasted mice, after a single s.c. injection, 250 nmol/kg
# Protocol: Normal chow-fed C57BL/6J male mice were used. The mice were kept in standard housing conditions, light-, temperature-, and humidity-controlled room (12:12 h light-dark cycle, with lights on at 06.00-18.00 h; 20-22° C.; 50-80% relative humidity). Each dosing group consisted of 6 animals. Mice were dosed once daily with 250 nmol/kg with the test compounds or vehicle for 4 days via subcutaneous administration.
# On day 0 mice were fasted and blood glucose levels measured after a single s.c. injection with peptides. Animals were sacrificed 24 hours after final dosing on day 3, and small intestinal wet weights were measured.
# [5] = molecular target: T3, human GLP-2 receptor (Homo sapiens, UniProt O95838); assay: GLP-2 receptor potency assay (cAMP AlphaScreen, HEK293 cells stably expressing GLP-2R); type: cell-based
# T3 sequence (O95838 1-553 D470N): T2 sequence (O95838 1-553 D470N)
# Method in brief: as §1
# [6] = Chemical stability, RP-HPLC main peak area-% after incubation at 40° C.; type: physicochemical; conditions: pH 7, 40° C., 14 day incubation, 0.2 mg/ml, normalized purity
# Protocol: Samples of each test peptide were dissolved in MilliQ™ water, and the pH of the solution was adjusted to pH 6, 7, 7.5 or 9 using either HCl or NaOH. The final peptide concentration was 0.2 mg/ml. Samples were placed in glass vials and incubated at 40° C. The samples were analyzed by RP-HPLC on a C18 column with gradient elution using an acetonitrile/TFA/water eluent system. The area-percentage (area-%) of the main peak after incubation time T=t (relative to time T=0) was determined by UV spectroscopy at 220 nm.
# The purity was first determined as follows: Purity (area-%)=(area of main peak/total area of all peaks)×100.
# The purity was then normalized between time points by setting purity at time 0 (T=0) to 100 for each pH value for a given peptide, as follows: Normalised area-% at time t (T=t)=[area-% (T=t)/area-% (T=0)]×100.
# The chemical stability assessment results after 14 day incubation (in the form of normalized purity values) are summarized in Table 4.
# [7] = molecular target: human glucagon-like peptide 1 receptor (GLP-1R) (human) (UniProt P43220)
# [8] = cAMP response, HEK293 cells expressing human GLP-1R, read-out: EC50 GLP-1
# [9] = 100 mM acetate buffer pH 4.0, ambient temperature, read-out: Solubility, Acetate buffer pH 4
# [10] = 100 mM acetate buffer pH 5.0, ambient temperature, read-out: Solubility, Acetate buffer pH 5
# [11] = 100 mM histidine buffer pH 6.0, ambient temperature, read-out: Solubility, Histidine buffer pH 6
# [12] = 100 mM histidine buffer pH 7.0, ambient temperature, read-out: Solubility, Histidine buffer pH 7
# [13] = 100 mM phosphate buffer pH 6.0, ambient temperature, read-out: Solubility, Phosphate buffer pH 6
# [14] = 100 mM phosphate buffer pH 7.0, ambient temperature, read-out: Solubility, Phosphate buffer pH 7
# [15] = 100 mM phosphate buffer pH 7.5, ambient temperature, read-out: Solubility, Phosphate buffer pH 7.5
Molecule,"EC50 [1, 8]",EC50 [2],"solubility [3, 9]","solubility [3, 10]","solubility [3, 11]","solubility [3, 12]","solubility [3, 13]","solubility [3, 14]","solubility [3, 15]",Small intestinal wet weight [4],Fasting blood glucose [4],EC50 [1],EC50 [5],pH 7 normalised stability [6],EC50 GLP-1 (nM); cAMP AlphaScreen [7]
CC[C@H](C)[C@H](NC(=O)[C@H](CC(C)C)NC(=O)[C@H](Cc1c[nH]c2ccccc12)NC(=O)[C@H](C)NC(=O)[C@@H](NC(=O)[C@H](Cc1ccccc1)NC(=O)[C@H](CC(=O)O)NC(=O)[C@H](CCCNC(=N)N)NC(=O)[C@H](C)NC(=O)[C@H](C)NC(=O)[C@H](CCC(N)=O)NC(=O)[C@H](CCC(=O)O)NC(=O)[C@H](CC(=O)O)NC(=O)[C@H](CC(C)C)NC(=O)[C@@H](NC(=O)[C@@H](NC(=O)[C@H](C)NC(=O)[C@H](CC(C)C)NC(=O)[C@H](CCC(=O)O)NC(=O)[C@H](CO)NC(=O)[C@@H](NC(=O)[C@H](Cc1ccccc1)NC(=O)[C@H](CO)NC(=O)CNC(=O)[C@H](CCC(=O)O)NC(=O)C(C)(C)NC(=O)[C@@H](N)Cc1c[nH]cn1)[C@@H](C)O)[C@@H](C)O)[C@@H](C)CC)[C@@H](C)CC)C(=O)N[C@@H](C)C(=O)N[C@@H](Cc1c[nH]cn1)C(=O)N[C@@H](CCCCN)C(=O)N[C@H](C(=O)N[C@H](C(=O)N[C@@H](CC(=O)O)C(=O)O)[C@@H](C)O)[C@@H](C)CC [Compound 1] (H-H[Aib]EGSFTSELATILDEQAARDFIAWLIAHKITD-OH),0.014 nM,0.036 nM,≥ 1000 µg/mL,< 1000 µg/mL,≥ 1000 µg/mL,≥ 1000 µg/mL,≥ 1000 µg/mL,≥ 1000 µg/mL,≥ 1000 µg/mL,0.90 g,5.76 mM,–,–,–,–
CC[C@H](C)[C@H](NC(=O)[C@H](Cc1ccccc1)NC(=O)[C@H](CC(=O)O)NC(=O)[C@H](CCCNC(=N)N)NC(=O)[C@H](C)NC(=O)[C@H](C)NC(=O)[C@H](CCC(N)=O)NC(=O)[C@H](CCC(=O)O)NC(=O)[C@H](CC(=O)O)NC(=O)[C@H](CC(C)C)NC(=O)[C@@H](NC(=O)[C@@H](NC(=O)[C@H](C)NC(=O)[C@H](CC(C)C)NC(=O)[C@H](CCC(=O)O)NC(=O)[C@H](CO)NC(=O)[C@@H](NC(=O)[C@H](Cc1ccccc1)NC(=O)[C@@H](NC(=O)CNC(=O)[C@H](CCC(=O)O)NC(=O)C(C)(C)NC(=O)[C@@H](N)Cc1c[nH]cn1)[C@@H](C)O)[C@@H](C)O)[C@@H](C)O)[C@@H](C)CC)C(=O)N[C@@H](C)C(=O)N[C@@H](Cc1c[nH]c2ccccc12)C(=O)N[C@@H](CC(C)C)C(=O)N[C@H](C(=O)N[C@@H](CCC(=O)O)C(=O)N[C@@H](Cc1c[nH]cn1)C(=O)N[C@@H](CCCCN)C(=O)N[C@H](C(=O)N[C@H](C(=O)N[C@@H](CC(=O)O)C(=O)O)[C@@H](C)O)[C@@H](C)CC)[C@@H](C)CC [Compound 5] (H-H[Aib]EGTFTSELATILDEQAARDFIAWLIEHKITD-OH),0.0098 nM,0.067 nM,≥ 1000 µg/mL,< 1000 µg/mL,≥ 1000 µg/mL,≥ 1000 µg/mL,≥ 1000 µg/mL,≥ 1000 µg/mL,≥ 1000 µg/mL,0.90 g,5.43 mM,–,–,–,–
CC[C@H](C)[C@H](NC(=O)[C@H](CC(C)C)NC(=O)[C@H](Cc1c[nH]c2ccccc12)NC(=O)[C@H](C)NC(=O)[C@@H](NC(=O)[C@H](Cc1ccccc1)NC(=O)[C@H](CCC(=O)O)NC(=O)[C@H](CCCNC(=N)N)NC(=O)[C@H](CO)NC(=O)[C@H](C)NC(=O)[C@H](CCC(N)=O)NC(=O)[C@H](CCC(=O)O)NC(=O)[C@H](CCC(=O)O)NC(=O)[C@H](CC(C)C)NC(=O)[C@@H](NC(=O)[C@@H](NC(=O)[C@H](CO)NC(=O)[C@H](CC(C)C)NC(=O)[C@H](CCC(=O)O)NC(=O)[C@H](CO)NC(=O)[C@H](CO)NC(=O)[C@H](Cc1ccccc1)NC(=O)[C@@H](NC(=O)CNC(=O)[C@H](CCC(=O)O)NC(=O)C(C)(C)NC(=O)[C@@H](N)Cc1c[nH]cn1)[C@@H](C)O)[C@@H](C)O)[C@@H](C)CC)[C@@H](C)CC)C(=O)N[C@@H](C)C(=O)N[C@@H](Cc1c[nH]cn1)C(=O)N[C@@H](CCCCN)C(=O)N[C@H](C(=O)N[C@H](C(=O)N[C@@H](CCC(=O)O)C(=O)O)[C@@H](C)O)[C@@H](C)CC [Compound 39] (H-H[Aib]EGTFSSELSTILEEQASREFIAWLIAHKITE-OH),–,–,–,–,–,–,–,–,–,–,–,0.03 nM,0.96 nM,–,–
H-HGEGTFTSELATILDEQAARDFIAWLIAHKITD-OH [Compound 38],–,–,–,–,–,–,–,–,–,–,–,0.008 nM,0.043 nM,C (<80% normalized stability),–
Liraglutide (NN2211; Victoza) (peptide),–,–,–,–,–,–,–,–,–,–,–,–,–,–,0.029 nM
